Tested on: monocrotaline-induced pulmonary hypertension
Assay: Monocrotaline-induced pulmonary hypertension in rats (haemodynamics, right heart hypertrophy, bleeding)
Format: in vivo, rat
Conditions: for bleeding complications in treated animals: bleeding with fatal outcome or need to euthanize; for effect on haemodynamics in the right heart and pulmonary circulation and right heart hypertrophy (in words): comparison of Example 1, enoxaparin and warfarin
Text: The monocrotaline-induced pulmonary hypertension in rats is a widely used animal model of pulmonary arterial hypertension. The pyrrolizidine alkaloid monocrotaline is metabolized after subcutaneous injection to toxic monocrotaline pyrrole in the liver and leads within a few days to endothelial damage and coagulation activation and thrombosis formation in the pulmonary circulation, followed by remodelling of the small pulmonary arteries (media hypertrophy, de-novo muscularization). A single subcutaneous injection is sufficient to induce pronounced pulmonary hypertension in rats within 4 weeks.
Male Sprague-Dawley rats are used for the model. On day 0, the animals receive a subcutaneous injection of monocrotaline 60 mg/kg. The treatment of the animals starts before the monocrotaline injection and extends over a period of at least 28 days. At the end of the study, the animals undergo haemodynamic investigations, and the arterial and central venous oxygen saturation is measured. The rats are initially anaesthetized with pentobarbital 60 mg/kg for the haemodynamic measurement. The animals are then tracheotomized and artificially ventilated (frequency: 60 breaths/min; inspiration to expiration ratio: 50:50; positive end-expiratory pressure: 1 cm H2O; tidal volume: 10 ml/kg body weight; FIO2: 0.5). The anaesthesia is maintained by isoflurane inhalation anaesthesia. The systemic blood pressure is measured in the left carotid artery by means of a Millar microtip catheter. A polyethylene catheter is advanced through the right jugular vein into the right ventricle for determining the right ventricular pressure. The cardiac output is measured by thermodilution. Following the haemodynamics, the heart is removed and the ratio of right to left ventricle including septum is determined.

enoxaparin [reference compound]
CO (Table 2, 20 mg/kg/d): 77 mL/min
RV/(LV + S) (Table 2, 20 mg/kg/d): 0.56
RVEDP (Table 2, 20 mg/kg/d): 6 mmHg
RVPmax (Table 2, 20 mg/kg/d): 85 mmHg
dP/dtmax (Table 2, 20 mg/kg/d): 4644 mmHg/s
bleeding complications in treated animals: half of the animals
effect on haemodynamics in the right heart and pulmonary circulation and right heart hypertrophy (in words): no effect

O=C(NC[C@H]1CN(c2ccc(N3CCOCC3=O)cc2)C(=O)O1)c1ccc(Cl)s1 [Example 1, 5-chloro-N-({(5S)-2-oxo-3-[4-(3-oxomorpholin-4-yl)phenyl]-1,3-oxazolidin-5-yl}methyl)thiophene-2-carboxamide]
RVEDP (Table 1, 3-9 mg/kg/d): 4 mmHg
dP/dtmax (Table 1, 3-9 mg/kg/d): 2715 mmHg/s
RVPmax (Table 1, 3-9 mg/kg/d, at least 28 days treatment): 55 mmHg
CO (Table 1, 3-9 mg/kg/d, cardiac output): 117 mL/min
RV/(LV + S) (Table 1, 3-9 mg/kg/d, weight of right heart relative to left heart including septum): 0.41
CO (Table 1, 10-30 mg/kg/d): 117 mL/min
RV/(LV + S) (Table 1, 10-30 mg/kg/d): 0.33
RVEDP (Table 1, 10-30 mg/kg/d): 3 mmHg
RVPmax (Table 1, 10-30 mg/kg/d): 44 mmHg
dP/dtmax (Table 1, 10-30 mg/kg/d): 2244 mmHg/s
CO (Table 2, 10-30 mg/kg/d): 125 mL/min
RV/(LV + S) (Table 2, 10-30 mg/kg/d): 0.38
RVEDP (Table 2, 10-30 mg/kg/d): 3 mmHg
RVPmax (Table 2, 10-30 mg/kg/d): 57 mmHg
dP/dtmax (Table 2, 10-30 mg/kg/d): 3300 mmHg/s
bleeding complications in treated animals: no bleedings
effect on haemodynamics in the right heart and pulmonary circulation and right heart hypertrophy (in words): better activity

CC(=O)CC(c1ccccc1)c1c(O)c2ccccc2oc1=O (stereo not shown) [Warfarin, warfarin, reference compound]
CO (Table 2, 0.1-0.2 mg/kg/d): 100 mL/min
RV/(LV + S) (Table 2, 0.1-0.2 mg/kg/d): 0.46
RVEDP (Table 2, 0.1-0.2 mg/kg/d): 4 mmHg
RVPmax (Table 2, 0.1-0.2 mg/kg/d): 64 mmHg
dP/dtmax (Table 2, 0.1-0.2 mg/kg/d): 4535 mmHg/s
bleeding complications in treated animals: half of the animals
effect on haemodynamics in the right heart and pulmonary circulation and right heart hypertrophy (in words): significantly smaller effect
